These results are taken from patent US4962113A, “Pyridinium derivatives, their production and use” (Takeda Chemical Industries, Ltd, priority 1987, dated 1990).

The assay concerns platelet aggregation (PAF). The assay can be described thus: Inhibitory action on PAF-induced rabbit platelet aggregation. It counts as cell-based. Conditions: Oryctolagus cuniculus, read-out: inhibitory percentage (platelet aggregation); for inhibition at 3 µM: 3 × 10^-6 M; for inhibition at 0.3 µM: 3 × 10^-7 M; for inhibition at 0.03 µM: 3 × 10^-8 M. The procedure:
Blood was collected directly from the hearts of male rabbits using a syringe containing, as an anticoagulant, 3.15% citric acid (one part to 9 parts of blood). The blood was subjected to centrifuge at 800 rpm for ten minutes at room temperature to obtain platelet rich plasma (PRP). The remaining blood was further subjected to centrifuge at 3000 rpm for ten minnutes to separate platelet poor plasma (PPP) as the supernatant. PRP was diluted with PPP, and the number of platelets was adjusted to about 500,000/ μl. This PRP(250 μl) was stirred for two minutes at 37° C., and there was added a test sample, and the mixture was stirred for further two minutes, followed by addition of PAF of a given concentration. Platelet aggregation was examined by means of a platelet-agglutometer (manufactured by Rika Denki). Platelet aggregation preventing action of the test sample was determined based on the maximum percent light transmission (maximum percent. agglutination).

As to `CCCCCCCCCCCCCCCCCCNC(=O)OCC(COC(=O)NCCN(C)C(=O)c1ccc[n+](CC)c1)OC` (stereo not drawn) [Production Example 1, 3-[N-[2-(2-methoxy-3-octadecylcarbamoyloxypropoxycarbonyl)]aminoethyl-N-methyl]carbamoyl-1-ethylpyridinium iodide], the inhibition at 3 µM worked out at 100%, the inhibition at 0.3 µM turned out to be 100% and the inhibition at 0.03 µM stood at 9%.

Turning to `CC[n+]1cc(Br)cc(C(=O)N(CCOC(=O)NCCOc2cccc3ccccc23)c2ccccc2)c1` [Production Example 6, 5-bromo-3-[N-[2-[2-(1-naphthyloxy)ethyl]carbamoyloxy]ethyl-N-phenyl]carbamoyl-1-ethylpyridinium iodide], the inhibition at 3 µM came to 100%, the inhibition at 0.3 µM amounted to 100% and the inhibition at 0.03 µM was 34%.

Regarding `CCN(CCOC(=O)NCCOc1cccc2ccccc12)C(=O)c1cc(Br)c[n+](CC)c1` [Production Example 15, 5-bromo-1-ethyl-3-[N-ethyl-N-[2-[2-(1-naphthyloxy)ethyl]carbamoyloxy]ethyl]carbamoylpyridinium iodide], the inhibition at 3 µM was found to be 100%, the inhibition at 0.3 µM is 100% and the inhibition at 0.03 µM amounted to 22%.

Regarding `CCCCN(CCOC(=O)NCCOc1cccc2ccccc12)C(=O)c1cc(Br)c[n+](CC)c1` [Production Example 19, 5-bromo-1-ethyl-3-[N-butyl-N-[2-[2-(1-naphthyloxy)ethyl]carbamoyloxy]ethyl]carbamoylpyridinium iodide], the inhibition at 3 µM was found to be 100%, the inhibition at 0.3 µM came to 100% and the inhibition at 0.03 µM came out at 42%.

Consider `CCC[n+]1cc(Br)cc(C(=O)N(CCOC(=O)NCCOC(=O)Nc2cccc3ccccc23)c2ccc(Cl)cc2)c1` [Production Example 22, 5-bromo-3-[N-(4-chlorophenyl)-N-[2-[2-(1-naphthylcarbamoyloxy)ethyl]carbamoyloxy]ethyl]carbamoyl-1-propylpyridinium chloride], for which the inhibition at 3 µM is 100%, the inhibition at 0.3 µM amounted to 100% and the inhibition at 0.03 µM came to 11%.

`CCC[n+]1cc(Br)cc(C(=O)N(CCOC(=O)NCCOC(=O)Nc2cccc3ccccc23)c2ccc(I)cc2)c1` [Production Example 25, 5-bromo-3-[N-(4-iodophenyl)-N-[2-[2-(1-naphthylcarbamoyloxy)ethyl]carbamoyloxy]ethyl]carbamoyl-1-propylpyridinium chloride]: the inhibition at 3 µM was found to be 100%, the inhibition at 0.3 µM is 100% and the inhibition at 0.03 µM came to 18%.

`CCC[n+]1cc(Br)cc(C(=O)N(CCOC(=O)NCCOC(=O)Nc2cccc3ccccc23)c2cc(OC)c(OC)c(OC)c2)c1` [Production Example 27, 5-bromo-3-[N-[2-[2-(1-naphthylcarbamoyloxy)ethyl]carbamoyloxy]ethyl-N-(3,4,5-trimethoxyphenyl)]carbamoyl-1-propylpyridinium chloride]: the inhibition at 3 µM stood at 100%, the inhibition at 0.3 µM stood at 100% and the inhibition at 0.03 µM is 3%.
